In patent US20130096170A1 (priority 2011, published 2013):

Assay: clinical
Conditions: human, plasma, intravenous, full evaluable population

Which Cmax (Cmax Median, Dose Level 2, LD 0.50/CD 0.4 μg/kg/hr) does the source give for `Cc1cccc([C@H](C)c2cnc[nH]2)c1C` [dexmedetomidine] here?
Its Cmax is 0.581 ng/mL.

And the Cmax (Cmax Median, Dose Level 3, LD 1.00/CD 0.7 μg/kg/hr)?
The Cmax was 0.966 ng/mL.

What about the Cmax (Cmax Median, Dose Level 4, LD 1.00/CD 2.00 μg/kg/hr) of the same compound?
Its Cmax is 2.69 ng/mL.

And the Cmax (Cmax, Table 30 key summary (mean), Dose Level 1, LD 0.25/CD 0.2 μg/kg/hr)?
Its Cmax is 0.48 ng/mL.

And the Cmax (Cmax, Table 30 key summary (mean), Dose Level 2, LD 0.50/CD 0.4 μg/kg/hr)?
Its Cmax is 0.848 ng/mL.

What about the Cmax (Cmax, Table 30 key summary (mean), Dose Level 3, LD 1.00/CD 0.7 μg/kg/hr) of the same compound?
The Cmax was 3.39 ng/mL.

What about the Cmax (Cmax, Table 30 key summary (mean), Dose Level 4, LD 1.00/CD 2.00 μg/kg/hr) of the same compound?
Its Cmax is 3.09 ng/mL.

What about the Tmax (Tmax Mean, Dose Level 1, LD 0.25/CD 0.2 μg/kg/hr) of the same compound?
The Tmax was 7.31 h.

And the Tmax (Tmax Mean, Dose Level 2, LD 0.50/CD 0.4 μg/kg/hr)?
Its Tmax is 8.8 h.

And the Tmax (Tmax Mean, Dose Level 3, LD 1.00/CD 0.7 μg/kg/hr)?
The Tmax was 2.17 h.

And the Tmax (Tmax Mean, Dose Level 4, LD 1.00/CD 2.00 μg/kg/hr)?
Its Tmax is 6.82 h.

And the Tmax (Tmax Median, Dose Level 1, LD 0.25/CD 0.2 μg/kg/hr)?
Its Tmax is 6.04 h.

And the Tmax (Tmax Median, Dose Level 2, LD 0.50/CD 0.4 μg/kg/hr)?
The Tmax was 5.68 h.

What about the Tmax (Tmax Median, Dose Level 3, LD 1.00/CD 0.7 μg/kg/hr) of the same compound?
Its Tmax is 0.367 h.

What about the Tmax (Tmax Median, Dose Level 4, LD 1.00/CD 2.00 μg/kg/hr) of the same compound?
The Tmax was 5.42 h.

What about the Vd (Vd Mean, Dose Level 1, LD 0.25/CD 0.2 μg/kg/hr) of the same compound?
Its Vd is 62 L.

And the Vd (Vd Mean, Dose Level 2, LD 0.50/CD 0.4 μg/kg/hr)?
Its Vd is 50.6 L.

What about the Vd (Vd Mean, Dose Level 3, LD 1.00/CD 0.7 μg/kg/hr) of the same compound?
The Vd was 52.3 L.

What about the Vd (Vd Mean, Dose Level 4, LD 1.00/CD 2.00 μg/kg/hr) of the same compound?
The Vd was 62.2 L.

And the Vd (Vd Median, Dose Level 2, LD 0.50/CD 0.4 μg/kg/hr)?
The Vd was 40.7 L.

And the Vd (Vd Median, Dose Level 3, LD 1.00/CD 0.7 μg/kg/hr)?
The Vd was 51.3 L.

What about the Vd (Vd Median, Dose Level 4, LD 1.00/CD 2.00 μg/kg/hr) of the same compound?
Its Vd is 57.8 L.

What about the Vd (Vd, Table 30 key summary (mean), Dose Level 1, LD 0.25/CD 0.2 μg/kg/hr) of the same compound?
Its Vd is 62 L.

What about the Vd (Vd, Table 30 key summary (mean), Dose Level 2, LD 0.50/CD 0.4 μg/kg/hr) of the same compound?
The Vd was 50.6 L.

What about the Vd (Vd, Table 30 key summary (mean), Dose Level 3, LD 1.00/CD 0.7 μg/kg/hr) of the same compound?
Its Vd is 52.3 L.

And the Vd (Vd, Table 30 key summary (mean), Dose Level 4, LD 1.00/CD 2.00 μg/kg/hr)?
The Vd was 62.2 L.

What about the Vd (Vss Mean, Dose Level 1, LD 0.25/CD 0.2 μg/kg/hr) of the same compound?
The Vd was 56.8 L.

What about the Vd (Vss Mean, Dose Level 3, LD 1.00/CD 0.7 μg/kg/hr) of the same compound?
The Vd was 32.8 L.

And the Vd (Vss Mean, Dose Level 4, LD 1.00/CD 2.00 μg/kg/hr)?
Its Vd is 43.7 L.

And the Vd (Vss Median, Dose Level 1, LD 0.25/CD 0.2 μg/kg/hr)?
Its Vd is 40.3 L.

What about the Vd (Vss Median, Dose Level 2, LD 0.50/CD 0.4 μg/kg/hr) of the same compound?
Its Vd is 30.6 L.

What about the Vd (Vss Median, Dose Level 3, LD 1.00/CD 0.7 μg/kg/hr) of the same compound?
The Vd was 30.4 L.

What about the Vd (Vss Median, Dose Level 4, LD 1.00/CD 2.00 μg/kg/hr) of the same compound?
Its Vd is 33.1 L.

And the clearance (Weight-adjusted CL Mean, Dose Level 1, LD 0.25/CD 0.2 μg/kg/hr)?
Its clearance is 17.3 mL/min/kg.

What about the clearance (Weight-adjusted CL Mean, Dose Level 2, LD 0.50/CD 0.4 μg/kg/hr) of the same compound?
The clearance was 15.7 mL/min/kg.

What about the clearance (Weight-adjusted CL Mean, Dose Level 3, LD 1.00/CD 0.7 μg/kg/hr) of the same compound?
Its clearance is 14 mL/min/kg.

What about the clearance (Weight-adjusted CL Mean, Dose Level 4, LD 1.00/CD 2.00 μg/kg/hr) of the same compound?
The clearance was 14.2 mL/min/kg.

What about the clearance (Weight-adjusted CL Median, Dose Level 1, LD 0.25/CD 0.2 μg/kg/hr) of the same compound?
The clearance was 19.9 mL/min/kg.

What about the clearance (Weight-adjusted CL Median, Dose Level 2, LD 0.50/CD 0.4 μg/kg/hr) of the same compound?
The clearance was 14.7 mL/min/kg.

What about the clearance (Weight-adjusted CL Median, Dose Level 3, LD 1.00/CD 0.7 μg/kg/hr) of the same compound?
The clearance was 14.7 mL/min/kg.

And the clearance (Weight-adjusted CL Median, Dose Level 4, LD 1.00/CD 2.00 μg/kg/hr)?
Its clearance is 13.4 mL/min/kg.

And the clearance (Weight-adjusted CL, Table 30 key summary (mean), Dose Level 1, LD 0.25/CD 0.2 μg/kg/hr)?
Its clearance is 16.7 mL/min/kg.

And the clearance (Weight-adjusted CL, Table 30 key summary (mean), Dose Level 2, LD 0.50/CD 0.4 μg/kg/hr)?
The clearance was 15 mL/min/kg.

And the clearance (Weight-adjusted CL, Table 30 key summary (mean), Dose Level 3, LD 1.00/CD 0.7 μg/kg/hr)?
Its clearance is 13.3 mL/min/kg.

And the clearance (Weight-adjusted CL, Table 30 key summary (mean), Dose Level 4, LD 1.00/CD 2.00 μg/kg/hr)?
Its clearance is 13.3 mL/min/kg.

What about the Vd (Weight-adjusted Vd Mean, Dose Level 1, LD 0.25/CD 0.2 μg/kg/hr) of the same compound?
Its Vd is 2.17 L/kg.

What about the Vd (Weight-adjusted Vd Mean, Dose Level 2, LD 0.50/CD 0.4 μg/kg/hr) of the same compound?
The Vd was 2.31 L/kg.

What about the Vd (Weight-adjusted Vd Mean, Dose Level 3, LD 1.00/CD 0.7 μg/kg/hr) of the same compound?
Its Vd is 2.44 L/kg.

What about the Vd (Weight-adjusted Vd Mean, Dose Level 4, LD 1.00/CD 2.00 μg/kg/hr) of the same compound?
The Vd was 2.48 L/kg.

And the Vd (Weight-adjusted Vd Median, Dose Level 1, LD 0.25/CD 0.2 μg/kg/hr)?
The Vd was 2.43 L/kg.

What about the Vd (Weight-adjusted Vd Median, Dose Level 2, LD 0.50/CD 0.4 μg/kg/hr) of the same compound?
Its Vd is 2.49 L/kg.

What about the Vd (Weight-adjusted Vd Median, Dose Level 3, LD 1.00/CD 0.7 μg/kg/hr) of the same compound?
Its Vd is 2.19 L/kg.

And the Vd (Weight-adjusted Vd Median, Dose Level 4, LD 1.00/CD 2.00 μg/kg/hr)?
Its Vd is 2.15 L/kg.

And the Vd (Weight-adjusted Vd, Table 30 key summary (mean), Dose Level 1, LD 0.25/CD 0.2 μg/kg/hr)?
Its Vd is 2.2 L/kg.

And the Vd (Weight-adjusted Vd, Table 30 key summary (mean), Dose Level 2, LD 0.50/CD 0.4 μg/kg/hr)?
Its Vd is 2.3 L/kg.

What about the Vd (Weight-adjusted Vd, Table 30 key summary (mean), Dose Level 3, LD 1.00/CD 0.7 μg/kg/hr) of the same compound?
The Vd was 2.4 L/kg.

What about the Vd (Weight-adjusted Vd, Table 30 key summary (mean), Dose Level 4, LD 1.00/CD 2.00 μg/kg/hr) of the same compound?
Its Vd is 2.5 L/kg.

What about the half-life (t1/2, Table 30 key summary (mean), Dose Level 1, LD 0.25/CD 0.2 μg/kg/hr) of the same compound?
The half-life was 1.5 h.

And the half-life (t1/2, Table 30 key summary (mean), Dose Level 2, LD 0.50/CD 0.4 μg/kg/hr)?
Its half-life is 1.7 h.

What about the half-life (t1/2, Table 30 key summary (mean), Dose Level 3, LD 1.00/CD 0.7 μg/kg/hr) of the same compound?
The half-life was 2 h.

What about the half-life (t1/2, Table 30 key summary (mean), Dose Level 4, LD 1.00/CD 2.00 μg/kg/hr) of the same compound?
The half-life was 2.1 h.

And the half-life (t1/2 Mean, Dose Level 1, LD 0.25/CD 0.2 μg/kg/hr)?
The half-life was 1.55 h.

What about the half-life (t1/2 Mean, Dose Level 2, LD 0.50/CD 0.4 μg/kg/hr) of the same compound?
Its half-life is 1.74 h.

What about the half-life (t1/2 Mean, Dose Level 3, LD 1.00/CD 0.7 μg/kg/hr) of the same compound?
Its half-life is 2.04 h.

And the half-life (t1/2 Mean, Dose Level 4, LD 1.00/CD 2.00 μg/kg/hr)?
The half-life was 2.14 h.

And the half-life (t1/2 Median, Dose Level 1, LD 0.25/CD 0.2 μg/kg/hr)?
The half-life was 1.56 h.

What about the half-life (t1/2 Median, Dose Level 2, LD 0.50/CD 0.4 μg/kg/hr) of the same compound?
Its half-life is 1.69 h.

And the half-life (t1/2 Median, Dose Level 3, LD 1.00/CD 0.7 μg/kg/hr)?
Its half-life is 1.79 h.

What about the half-life (t1/2 Median, Dose Level 4, LD 1.00/CD 2.00 μg/kg/hr) of the same compound?
Its half-life is 2.12 h.
